The values below come from patent US20050075398A1, “Neuroprotectin D1 protects against cellular apoptosis, stroke damage, alzheimer's disease and retinal diseases” (priority 2003, published 2005).

Experiment [1] deals with IL-1β-induced HIF-1α activation. Description: EMSA of HIF-1α in IL-1β-exposed human neural progenitor cells. Conditions: HN progenitor cells; IL-1β 10 ng/ml 3 h. The experiment is classed as cell-based. On the procedure:
(§1) Human neural (HN) progenitor cells in primary culture. HN cells were grown to ˜70% confluence (˜50,000 cells per 3.5-cm diameter well) in 6-well COSTAR plates at 37° C., 5% CO2/20% O2/75% N2 in humidified air at 1 atm (normoxic conditions) in NPMM medium (Clonetics CC-4241) supplemented with hFGF, NSF-1, hEGF, GA-1000, as described by the manufacturer (Clonetics, Walkersville, Md.). HN cells tested negative for HIV-1, hepatitis B and C, mycoplasma, bacteria, yeast, and fungi, and positive for the glial and neuronal markers GFAP, MAP2, and β-tubulin III (Clonetics). […]
(§2) Electrophoretic mobility-shift assay (EMSA) of human AP1, HIF-1α, NF-κBp50/p65, and STAT-1α. Nuclear protein extracts (NPXTs) were prepared from one to three 3.5 cm-diameter wells of HN cells and quantitated. NPXTs (5 μg) derived from HN cells were incubated with[γ-^32P]-ATP (˜3000 Ci/mmol)-end-labeled AP1, HIF-1α, NF-κκBp50/p65, or STAT-1α consensus and mutant oligonucleotides in 5-μl volumes, reacted for 30 min on ice, analyzed on 5% or 10% acrylamide/90 mM Tris-borate pH 8.4, 1 mM EDTA (TBE) gels, dried onto 2-mm Whatman filter paper at 80° C. for 2 h, and phosphorimaged using a Typhoon Variable Mode Imager (Amersham Pharmacia Biotech, Piscataway, N.J. ).

In experiment [2] the test system is IL-1β-induced NF-κB activation. Description: EMSA of NF-κB in IL-1β-exposed human neural progenitor cells. It counts as cell-based. Conditions: HN progenitor cells, IL-1β 10 ng/ml 3 h. As to the method: as §1, §2
On the technique in general: Mobility shift assays separate free from complexed probe on a gel.

The subject of another experiment is Bcl-xL. Description: Western blot of Bcl-xL in ARPE-19 cells under TNFα/H2O2. The experiment is classed as cell-based, human. The note with it: 50 nM; TNFα plus H2O2 (400 or 800 μM) 6 h. On the procedure:
Analysis of pro- and anti-apoptotic proteins in ARPE-19 cells: Bcl-2 family proteins were analyzed by Western-blot analysis. In brief, 20-μg equivalents of each cell extract were subjected to electrophoresis on a 8-16% gel (Promega, Madison, Wis.) at 125 volts for 2 h. The proteins were transferred to nitrocellulose membrane at 30 volts for 1 h at 4° C. The membranes were subjected to treatment with primary antibodies of Bcl-2, Bcl-xL, Bax, and Bad for 1 h at room temperature, and probed 30 min with secondary antibody, goat anti-rabbit Ig:HRPO and HRP-conjugated anti-biotin antibody. (BD Sciences—Pharminogen, San Diego, Calif.) Then proteins were evaluated using an ECL kit. (Amersham Biosciences Corp., Piscataway, N.J.)
Using the same TNFα/H2O2 concentrations, Bcl-2 proteins were assayed. Cells were grown for 72 h after plating, placed in serum-free medium for 1 h, then incubated with TNFα/H2O2 for 6 h. Protein expression and Western-blot analysis were performed as described in Example 13. Data in FIGS. 14A, 14B, 14C and 14D represent four independent experiments with triplicate samples in each case. Anti-apoptotic protein Bcl-xL was enhanced in ARPE-19 cells by TNFα/H2O2 (800 μM) (FIG. 14B, first bar), whereas Bcl-2 was not changed (FIG. 14A, first bar).
A general note: In western blotting, separated proteins are transferred to a membrane and probed.

The next experiment has as its system AP1-DNA binding activity. Description: EMSA of AP1 in IL-1β-exposed human neural progenitor cells. It counts as cell-based. Conditions: HN progenitor cells. As to the method: as §1, §2
Another experiment deals with human COX-2 promoter. As to the kind of experiment: IL-1β-induced human COX-2 promoter-luciferase assay in ARPE-19 cells. The note with it: IL-1β 10 ng/ml 8 h, NPD1 0.05 to 100 nM, read-out: IC50, IL-1β induction of the COX-2 promoter. It counts as cell-based. As to the method:
Transfection of ARPE-19 cells with human COX-2 (830 bp): ARPE-19 cells growing in 12-well plates were transfected with 5 μg human COX-2-luciferase construct (830 bp) by FuGENE-6 (obtained from Drs. S. Prescott and D. Dixon, Vanderbilt University, Nashville, Tenn.). Four hours later, the medium containing FuGENE-6 was removed, fresh DMEM-F12 (10% FBS) was added, and the cells further incubated 8 h at 37° C. Transfected cells were serum-starved for 4 h and challenged with IL-1β (10 ng/ml) for 8 h with or without NPD1. NPD1 was added at concentrations from 0.05 to 100 nm. Eight hours later, cell homogenates were made, protein concentrations were adjusted, and luciferase assays were performed using 20 μg equivalent protein in Monolight 2010 for 20 seconds with luciferin as substrate, as described below.
Luciferase assay: The medium containing IL-1β and NPD1 was removed, and the cells were washed with 1 ml cold PBS. The cells were scraped and centrifuged 2500×g for 20 minutes at 4° C. The cell pellet was re-suspended in 500 μl of 2×luciferase assay buffer (ALL, 0.2 mM tricine, 2 mM DTT, 30 mM MgSO4 and 10 mM ATP). […] The relative light units were determined by using an ALL luminometer recording over a 20-second interval, as described in Bazan, N. G., Fletcher, B. S., Herschman, H. R. & Mukherjee, P. K. (1994) Proc. Natl. Acad. Sci. U.S.A. 91:5252-5256. […]

A further experiment relates to Bcl-2 gene expression. Description: HGU133 GeneChip DNA array in HN cells: Bcl-2. The note with it: Aβ42 25 μM, DHA 50 nM or NPD1 50 nM, 18 h, nsc = no significant change. The experiment is classed as cell-based, human.

What is called IC50 is the concentration needed to halve the response being measured. Take `CC/C=C\C[C@H](O)\C=C/C=C/C=C/[C@H](O)C/C=C\C/C=C\CCC(=O)O` [NPD1, 10,17S-docosatriene]: in experiment [1], the “effect on IL-1β-induced HIF-1α activation” value is “but not IL-1β-induced HIF-1α activation, was inhibited”. The “concentration at which inhibitory effect on NF-κB is seen (as low as)” value in experiment [2] came out at 0.3 nM. Moreover, in experiment [2] (concentration-dependent), the “effect on IL-1β-induced NF-κB activation” value is recorded as “down-regulated”. In addition, the “effect on Bcl-xL expression” value in the experiment with Bcl-xL is “increased expression”. In the experiment with AP1-DNA binding activity, the “effect on IL-1β-induced AP1-DNA binding activity” value is on record as “did not affect”. Moreover, the half-inhibitory concentration (IC50) with human COX-2 promoter is under 5 nM. In addition, the “Bcl-2 gene expression, fold change over untreated controls” value with Bcl-2 gene expression is listed as “+3.3 fold”.
